IC50 data for 28 compounds are collected here from patent US8148367B2 (Takeda Pharmaceutical Company Limited, priority 2008, dated 2012).

This experiment concerns the target T1, Recombinant human renin (Homo sapiens, UniProt P00797).
T1 construct: isolate the active form (residues 67-406); made in house; host or cells: FreeStyle 293-F cells, transient expression of pcDNA3.1(+)/hREN
T1 sequence (P00797 67-406): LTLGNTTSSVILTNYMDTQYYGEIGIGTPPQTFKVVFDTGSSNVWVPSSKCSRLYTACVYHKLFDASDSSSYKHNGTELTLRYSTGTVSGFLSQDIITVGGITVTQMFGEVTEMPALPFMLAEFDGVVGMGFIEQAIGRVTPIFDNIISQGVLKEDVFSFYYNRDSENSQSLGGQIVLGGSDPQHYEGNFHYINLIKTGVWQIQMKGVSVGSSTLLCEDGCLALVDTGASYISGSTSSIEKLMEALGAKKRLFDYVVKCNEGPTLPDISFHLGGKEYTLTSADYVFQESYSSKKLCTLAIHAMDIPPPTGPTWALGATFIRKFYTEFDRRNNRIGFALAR
Kind of experiment: In vitro enzymatic activity assay of renin inhibitors (fluorescence, QXL520/HiLyteFluo488 peptide substrate). Type of experiment: biochemical. The settings on record: recombinant human renin 3 nM, 1 μM substrate, pre-incubated 10 minutes at 37° C., incubation one hour, pH 7.4, 5% DMSO; read-out: IC50 of Exemplified Compounds Against Renin.

On to `COc1ccccc1-n1c(-c2ccccc2)c(C(=O)N2CCNCC2)n(CCNS(=O)(=O)c2ccccc2)c1=O` [Example 158, N-(2-(3-(2-Methoxyphenyl)-2-oxo-4-phenyl-5-(piperazine-1-carbonyl)-2,3-dihydro-1H-imidazol-1-yl)ethyl)benzenesulfonamide], for which the IC50 – broadly, the midpoint of a concentration-inhibition curve – was over 1 µM.

Consider `COc1ccccc1-n1c(-c2ccccc2)c(C(=O)N2CCNCC2)n(CCCNC(=O)c2ccccc2)c1=O` [Example 159, N-(3-(3-(2-Methoxyphenyl)-2-oxo-4-phenyl-5-(piperazine-1-carbonyl)-2,3-dihydro-1H-imidazol-1-yl)propyl)benzamide], for which the 50% inhibitory concentration (IC50) was over 1 µM.

As for `COc1ccccc1-n1c(-c2ccccc2)c(C(=O)N2CCNCC2)n(CC2CCCCC2)c1=O` [Example 160, 1-(Cyclohexylmethyl)-3-(2-methoxyphenyl)-4-phenyl-5-(piperazine-1-carbonyl)-1H-imidazol-2(3H)-one], the concentration for half-maximal inhibition (IC50) was over 1 µM. As for `COc1ccccc1-n1c(-c2ccccc2)c(C(=O)N2CCNCC2)n(CCCNS(=O)(=O)c2ccccc2)c1=O` [Example 161, N-(3-(3-(2-Methoxyphenyl)-2-oxo-4-phenyl-5-(piperazine-1-carbonyl)-2,3-dihydro-1H-imidazol-1-yl)propyl)benzenesulfonamide], the IC50 was in the range of 0.1 to 0.5 µM.

On to `Cc1ccccc1-n1c(-c2ccccc2)c(C(=O)N2CCNCC2)n(CCCNS(=O)(=O)c2ccccc2)c1=O` [Example 162, N-(3-(2-oxo-4-Phenyl-5-(piperazine-1-carbonyl)-3-o-tolyl-2,3-dihydro-1H-imidazol-1-yl)propyl)benzenesulfonamide], for which the IC50 lay within 0.1 to 0.5 µM. As for `Cc1ccccc1-n1c(-c2ccccc2)c(C(=O)N2CCNCC2)n(CC2CCCCC2)c1=O` [Example 163, 1-(Cyclohexylmethyl)-4-phenyl-5-(piperazine-1-carbonyl)-3-o-tolyl-1H-imidazol-2(3H)-one], the figure is over 1 µM. Turning to `COCCCOc1cccc(-n2c(-c3ccccc3)c(C(=O)N3CCNCC3)n(Cc3ccc(F)c(F)c3)c2=O)c1` [Example 164, 1-(3,4-Difluorobenzyl)-3-(3-(3-methoxypropoxy)phenyl)-4-phenyl-5-(piperazine-1-carbonyl)-1H-imidazol-2(3H)-one], the IC50 was in the range of 0.5 to 1 µM. `Cc1ccccc1-n1c(-c2ccccc2)c(C(=O)N2CCNCC2)n(CCCNC(=O)CC(C)C)c1=O` [Example 165, 3-Methyl-N-(3-(2-oxo-4-phenyl-5-(piperazine-1-carbonyl)-3-o-tolyl-2,3-dihydro-1H-imidazol-1-yl)propyl)butanamide]: the IC50 is over 1 µM. In the case of `Cc1ccccc1-n1c(-c2ccccc2)c(C(=O)N2CCNCC2)n(CCNC(=O)c2ccccc2)c1=O` [Example 166, N-(2-(2-oxo-4-Phenyl-5-(piperazine-1-carbonyl)-3-o-tolyl-2,3-dihydro-1H-imidazol-1-yl)ethyl)benzamide] it was 0.5 to 1 µM. Consider `COc1ccccc1-n1c(-c2ccccc2)c(C(=O)N2CCNCC2)n(CCCNC(=O)CC(C)C)c1=O` [Example 167, N-(3-(3-(2-Methoxyphenyl)-2-oxo-4-phenyl-5-(piperazine-1-carbonyl)-2,3-dihydro-1H-imidazol-1-yl)propyl)-3-methylbutanamide], for which the concentration for half-maximal inhibition (IC50) is over 1 µM. For the compound `COc1ccccc1-n1c(-c2ccccc2)c(C(=O)N2CCNCC2)n(CCNC(=O)c2ccccc2)c1=O` [Example 168, N-(2-(3-(2-Methoxyphenyl)-2-oxo-4-phenyl-5-(piperazine-1-carbonyl)-2,3-dihydro-1H-imidazol-1-yl)ethyl)benzamide], the IC50 fell in the range of 0.1 to 0.5 µM. Take `COc1ccccc1-n1c(-c2ccccc2)c(C(=O)N2CCNCC2)n(CCNC(=O)CC(C)C)c1=O` [Example 169, N-(2-(3-(2-Methoxyphenyl)-2-oxo-4-phenyl-5-(piperazine-1-carbonyl)-2,3-dihydro-1H-imidazol-1-yl)ethyl)-3-methylbutanamide]: the IC50 is over 1 µM. With `O=C(NCCCn1c(C(=O)N2CCNCC2)c(-c2ccccc2)n(C2CCCC[C@@H]2O)c1=O)c1ccccc1` (stereo partly drawn) [Example 170, N-(3-(3-((2S)-2-Hydroxycyclohexyl)-2-oxo-4-phenyl-5-(piperazine-1-carbonyl)-2,3-dihydro-1H-imidazol-1-yl)propyl)benzamide], the IC50 is over 1 µM. `O=C(c1c(-c2ccccc2)n(C2CCCC[C@@H]2O)c(=O)n1CCCNS(=O)(=O)c1ccccc1)N1CCNCC1` (stereo partly drawn) [Example 171, N-(3-(3-((2S)-2-Hydroxycyclohexyl)-2-oxo-4-phenyl-5-(piperazine-1-carbonyl)-2,3-dihydro-1H-imidazol-1-yl)propyl)benzenesulfonamide]: the IC50 was over 1 µM. Regarding `CC(C)CC(=O)NCCCn1c(C(=O)N2CCNCC2)c(-c2ccccc2)n(C2CCCC[C@@H]2O)c1=O` (stereo partly drawn) [Example 172, N-(3-(3-((2S)-2-Hydroxycyclohexyl)-2-oxo-4-phenyl-5-(piperazine-1-carbonyl)-2,3-dihydro-1H-imidazol-1-yl)propyl)-3-methylbutanamide], the IC50 was over 1 µM. Take `CC(C)CC(=O)NCCn1c(C(=O)N2CCNCC2)c(-c2ccccc2)n(C2CCCC[C@@H]2O)c1=O` (stereo partly drawn) [Example 173, N-(2-(3-((2S)-2-Hydroxycyclohexyl)-2-oxo-4-phenyl-5-(piperazine-1-carbonyl)-2,3-dihydro-1H-imidazol-1-yl)ethyl)-3-methylbutanamide]: the IC50 is over 1 µM.

`O=C(NCCCn1c(C(=O)N2CCNCC2)c(-c2ccccc2)n(-c2cccc(N3CCOCC3)c2)c1=O)c1ccccc1` [Example 174]: the half-inhibitory concentration (IC50) is over 1 µM. On to `O=C(c1c(-c2ccccc2)n(-c2cccc(N3CCOCC3)c2)c(=O)n1CCCNS(=O)(=O)c1ccccc1)N1CCNCC1` [Example 175, N-(3-(3-(3-Morpholinophenyl)-2-oxo-4-phenyl-5-(piperazine-1-carbonyl)-2,3-dihydro-1H-imidazol-1-yl)propyl)benzenesulfonamide], for which the half-inhibitory concentration (IC50) lay within 0.1 to 0.5 µM. In the case of `CC(C)CC(=O)NCCCn1c(C(=O)N2CCNCC2)c(-c2ccccc2)n(-c2cccc(N3CCOCC3)c2)c1=O` [Example 176, 3-Methyl-N-(3-(3-(3-morpholinophenyl)-2-oxo-4-phenyl-5-(piperazine-1-carbonyl)-2,3-dihydro-1H-imidazol-1-yl)propyl)butanamide], the half-maximal inhibitory concentration (IC50) was over 1 µM. In the case of `O=C(NCCn1c(C(=O)N2CCNCC2)c(-c2ccccc2)n(-c2cccc(N3CCOCC3)c2)c1=O)c1ccccc1` [Example 177, N-(2-(3-(3-Morpholinophenyl)-2-oxo-4-phenyl-5-(piperazine-1-carbonyl)-2,3-dihydro-1H-imidazol-1-yl)ethyl)benzamide], the IC50 lay within 0.5 to 1 µM. Consider `CC(C)CC(=O)NCCn1c(C(=O)N2CCNCC2)c(-c2ccccc2)n(-c2cccc(N3CCOCC3)c2)c1=O` [Example 178, 3-Methyl-N-(2-(3-(3-morpholinophenyl)-2-oxo-4-phenyl-5-(piperazine-1-carbonyl)-2,3-dihydro-1H-imidazol-1-yl)ethyl)butanamide], for which the 50% inhibitory concentration (IC50) is over 1 µM. Take `COCCCOc1cccc(-n2c(-c3ccccc3)c(C(=O)N3CCNCC3)n(CCCNC(=O)c3ccccc3)c2=O)c1` [Example 179, N-(3-(3-(3-(3-Methoxypropoxy)phenyl)-2-oxo-4-phenyl-5-(piperazine-1-carbonyl)-2,3-dihydro-1H-imidazol-1-yl)propyl)benzamide]: the IC50 lay within 0.5 to 1 µM. In the case of `COCCCOc1cccc(-n2c(-c3ccccc3)c(C(=O)N3CCNCC3)n(CCCNS(=O)(=O)c3ccccc3)c2=O)c1` [Example 180, N-(3-(3-(3-(3-Methoxypropoxy)phenyl)-2-oxo-4-phenyl-5-(piperazine-1-carbonyl)-2,3-dihydro-1H-imidazol-1-yl)propyl)benzenesulfonamide] it was 0.1 to 0.5 µM; in that of `COCCCOc1cccc(-n2c(-c3ccccc3)c(C(=O)N3CCNCC3)n(CCCNC(=O)CC(C)C)c2=O)c1` [Example 181, N-(3-(3-(3-(3-Methoxypropoxy)phenyl)-2-oxo-4-phenyl-5-(piperazine-1-carbonyl)-2,3-dihydro-1H-imidazol-1-yl)propyl)-3-methylbutanamide], over 1 µM. Turning to `COCCCOc1cccc(-n2c(-c3ccccc3)c(C(=O)N3CCNCC3)n(CCNC(=O)c3ccccc3)c2=O)c1` [Example 182, N-(2-(3-(3-(3-Methoxypropoxy)phenyl)-2-oxo-4-phenyl-5-(piperazine-1-carbonyl)-2,3-dihydro-1H-imidazol-1-yl)ethyl)benzamide], the half-maximal inhibitory concentration (IC50) lay in the range of 0.1 to 0.5 µM.

`COCCCOc1cccc(-n2c(-c3ccccc3)c(C(=O)N3CCNCC3)n(CCNS(=O)(=O)c3ccccc3)c2=O)c1` [Example 183, N-(2-(3-(3-(3-Methoxypropoxy)phenyl)-2-oxo-4-phenyl-5-(piperazine-1-carbonyl)-2,3-dihydro-1H-imidazol-1-yl)ethyl)benzenesulfonamide]: the IC50 was over 1 µM. Consider `COCCCOc1cccc(-n2c(-c3ccccc3)c(C(=O)N3CCNCC3)n(CCNC(=O)CC(C)C)c2=O)c1` [Example 184, N-(2-(3-(3-(3-Methoxypropoxy)phenyl)-2-oxo-4-phenyl-5-(piperazine-1-carbonyl)-2,3-dihydro-1H-imidazol-1-yl)ethyl)-3-methylbutanamide], for which the half-inhibitory concentration (IC50) is over 1 µM. As to `O=C(c1c(-c2ccccc2)n(-c2cccc(N3CCOCC3)c2)c(=O)n1CCNS(=O)(=O)c1ccccc1)N1CCNCC1` [Example 185, N-(2-(3-(3-Morpholinophenyl)-2-oxo-4-phenyl-5-(piperazine-1-carbonyl)-2,3-dihydro-1H-imidazol-1-yl)ethyl)benzenesulfonamide], the concentration for half-maximal inhibition (IC50) is over 1 µM.
